Drawing on patent US20250171459A1, “2-METHYL-4',5'-DIHYDROSPIRO[PIPERIDINE-4,7'-THIENO[2,3-C]PYRAN] DERIVATIVES AS INHIBITORS OF APOL1 AND METHODS OF USING SAME” (Vertex Pharmaceuticals Incorporated, priority 2022, published 2025), this text covers IC50 for 21 compounds.

This assay deals with T1, APOL1 (Homo sapiens, UniProt O14791).
T1 sequence (O14791 1-398 S342G/I384M): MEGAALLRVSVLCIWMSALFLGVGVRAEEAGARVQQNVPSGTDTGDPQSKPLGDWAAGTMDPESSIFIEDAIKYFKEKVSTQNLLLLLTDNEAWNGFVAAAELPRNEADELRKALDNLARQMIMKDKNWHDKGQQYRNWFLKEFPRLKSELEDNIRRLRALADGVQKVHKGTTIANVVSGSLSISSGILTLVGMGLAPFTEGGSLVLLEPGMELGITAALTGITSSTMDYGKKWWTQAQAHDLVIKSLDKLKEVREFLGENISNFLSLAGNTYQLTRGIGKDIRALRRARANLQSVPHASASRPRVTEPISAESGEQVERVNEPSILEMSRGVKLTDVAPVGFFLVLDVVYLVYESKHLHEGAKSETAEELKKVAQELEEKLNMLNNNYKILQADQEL
In words: MultiTox-Fluor Multiplex Cytotoxicity Assay in tet-inducible APOL1 T-REx-HEK293 cells (cell rescue, ratio of dead to live cells). As to conditions: tet-inducible transgenic APOL1 T-REx-HEK293 cell lines, 50 ng/mL tet, 24 hours; read-out: IP50 (i.e., IC50 for cell proliferation). The class given is cell-based. In short, it runs like this: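 T-REx-HEK293 cells with tet-inducible APOL1 were treated with compound (10 μM top, 10-point 3-fold dilution, duplicate) plus 50 ng/mL tetracycline for 24 h at 37° C, in DMEM with 2% tet-free FBS. MultiTox-Fluor protease signals gave a dead/live ratio, normalized to no tet (100% viability) and tet alone (0%).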
For `CCc1cc2c(s1)CCO[C@@]21CCN(Cc2cn(CCOc3nonc3C)nn2)[C@@H](C)C1` [Compound 185], the IC50 is less than 100 nM.

With `CCc1cc2c(s1)CCO[C@@]21CCN(Cc2cn(C(C)c3nnc4n3CCC4)nn2)[C@@H](C)C1` (stereo partly drawn) [Compound 186], the IC50 was in the range of 100 to 500 nM.

For `CCc1cc2c(s1)CCO[C@@]21CCN(Cc2cn(CC3CCCN(S(C)(=O)=O)C3)nn2)[C@@H](C)C1` (stereo partly drawn) [Compound 187], the IC50 is 100 to 500 nM.

In the case of `CCc1cc2c(s1)CCO[C@@]21CCN(Cc2cn(CC(O)c3c(C)nn(C)c3C)nn2)[C@@H](C)C1` (stereo partly drawn) [Compound 189], the IC50 was less than 100 nM.

Consider `CCc1cc2c(s1)CCO[C@@]21CCN(Cc2cn(CC3(O)CCOCC3)nn2)[C@@H](C)C1` [Compound 190], for which the IC50 was less than 100 nM.

For the compound `CCc1cc2c(s1)CCO[C@@]21CCN(Cc2cn(CC(O)CN3CCOCC3)nn2)[C@@H](C)C1` (stereo partly drawn) [Compound 191], the IC50 was less than 100 nM.

As for `CCc1cc2c(s1)CCO[C@@]21CCN(Cc2cn(C(C)(C)CCS(C)(=O)=O)nn2)[C@@H](C)C1` [Compound 192], the IC50 was 500 to 1000 nM.

Take `CCc1cc2c(s1)CCO[C@@]21CCN(Cc2cn(C(CO)[C@H](C)O)nn2)[C@@H](C)C1` (stereo partly drawn) [Compound 193]: the IC50 lay in the range of 500 to 1000 nM.

Turning to `CCc1cc2c(s1)CCO[C@@]21CCN(Cc2cn(CCN3CCCC3=O)nn2)[C@@H](C)C1` [Compound 194], the IC50 fell in the range of 500 to 1000 nM.

`CCc1cc2c(s1)CCO[C@@]21CCN(Cc2cn(CCOCCOCCO)nn2)[C@@H](C)C1` [Compound 195]: the IC50 lay within 100 to 500 nM.

`CCc1cc2c(s1)CCO[C@@]21CCN(Cc2cn(C3C[C@H](CO)NC3=O)nn2)[C@@H](C)C1` (stereo partly drawn) [Compound 196]: the IC50 lay within 100 to 500 nM.

On to `CCc1cc2c(s1)CCO[C@@]21CCN(Cc2cn(CCOCCOCCOCCO)nn2)[C@@H](C)C1` [Compound 197], for which the IC50 lay in the range of 100 to 500 nM.

With `CCc1cc2c(s1)CCO[C@@]21CCN(Cc2cnc(Cl)nc2)[C@@H](C)C1` [Compound 198, (2′S,4R)-1′-[(2-chloropyrimidin-5-yl)methyl]-2-ethyl-2′-methyl-spiro[6,7-dihydrothieno[3,2-c]pyran-4,4′-piperidine]], the IC50 was 100 to 500 nM.

As for `CCc1cc2c(s1)CCO[C@@]21CCN(Cc2ccc(Cl)nc2)[C@@H](C)C1` [Compound 199, (2′S,4R)-1′-[(6-chloro-3-pyridyl)methyl]-2-ethyl-2′-methyl-spiro[6,7-dihydrothieno[3,2-c]pyran-4,4′-piperidine]], the IC50 was less than 100 nM.

As to `CCc1cc2c(s1)CCO[C@@]21CCN(Cc2cnc(N[C@@H]3C=C[C@H](CO)C3)nc2)[C@@H](C)C1` [Compound 200, [(1R,4S)-4-[[5-[[(2′S,4R)-2-ethyl-2′-methyl-spiro[6,7-dihydrothieno[3,2-c]pyran-4,4′-piperidine]-1′-yl]methyl]pyrimidin-2-yl]amino]cyclopent-2-en-1-yl]methanol], the IC50 was less than 100 nM.

As for `CCc1cc2c(s1)CCO[C@@]21CCN(Cc2cnc(NC(C)(C)CO)nc2)[C@@H](C)C1` [Compound 201, 2-[[5-[[(2′S,4R)-2-ethyl-2′-methyl-spiro[6,7-dihydrothieno[3,2-c]pyran-4,4′-piperidine]-1′-yl]methyl]pyrimidin-2-yl]amino]-2-methyl-propan-1-ol], the IC50 was less than 100 nM.

Take `CCc1cc2c(s1)CCO[C@@]21CCN(Cc2ccc(N[C@@H]3C=C[C@H](CO)C3)nc2)[C@@H](C)C1` [Compound 202]: the IC50 was less than 100 nM.

Consider `CCc1cc2c(s1)CCO[C@@]21CCN(Cc2cnc(N[C@H]3COC[C@@H]3O)nc2)[C@@H](C)C1` [Compound 203], for which the IC50 is less than 100 nM.

Turning to `CCc1cc2c(s1)CCO[C@@]21CCN(Cc2cnc(N[C@H]3CC[C@H](O)C3)nc2)[C@@H](C)C1` [Compound 204], the IC50 was less than 100 nM.

Turning to `CCc1cc2c(s1)CCO[C@@]21CCN(Cc2ccc(N[C@H]3CC[C@H](O)C3)nc2)[C@@H](C)C1` [Compound 205], the IC50 was less than 100 nM.

`CCc1cc2c(s1)CCO[C@@]21CCN(Cc2cnc(NCc3ccc(O)cn3)nc2)[C@@H](C)C1` [Compound 206]: the IC50 is less than 100 nM.
